Laboratory results published in ChEMBL document CHEMBL1201862, “PubChem BioAssay data set” (2004).
Active and inactive are the calls of the source.

What was measured:
[1] = molecular target: G-protein coupled receptor 55 (Homo sapiens, UniProt Q9Y2T6); test: SAR Analysis of Selective Antagonists of GPR55 using an Image-Based Assay - Set 3. [Related pubchem assays (depositor defined):AID2058, AID2079]; format: functional
[2] = molecular target: G-protein coupled receptor 35 (Homo sapiens, UniProt Q9HC97); test: SAR analysis of Antagonists of the GPR35 Receptor using an Image-Based Assay - Set 5. [Related pubchem assays (depositor defined):AID2058, AID2079]; format: functional
[3] = molecular target: T1, Kappa-type opioid receptor (Homo sapiens, UniProt P41145); test: SAR analysis of Antagonists of the Kappa Opioid Receptor (KOR) using an Image-Based Assay - Set 4. [Related pubchem assays (depositor defined):AID1777, AID1785]; format: functional
[4] = molecular target: T1, Kappa-type opioid receptor; test: SAR analysis of small molecule antagonists of the kappa opioid receptor via a luminescent beta-arrestin assay - Set 3. [Related pubchem assays (depositor defined):AID1777, AID1778, AID1785, AID1786, AID1966, AID2133, AID2136, AID2285, AID2495]; format: functional
[5] = molecular target: Delta-type opioid receptor (Homo sapiens, UniProt P41143); test: SAR Analysis of Antagonists of the DOR Receptor using an Image-Based Assay - Set 3. [Related pubchem assays (depositor defined):AID1777, AID1785]; format: functional;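 further: U2OS cells expressing DOR1 and beta-arrestin GFP stimulated with 100 nM SNC80; imaging of GFP-tagged beta-arrestin moving into spots after receptor activation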
Mu-type opioid receptor = Mu-type opioid receptor (Homo sapiens, UniProt P35372); test: SAR Analysis of Antagonists of the MOR Receptor using an Image-Based Assay - Set 3. [Related pubchem assays (depositor defined):AID1777, AID1785, AID1786, AID1966, AID2133, AID2136, AID2284, AID2285, AID2420]; format: functional
BJ [6] = test: cells; format: functional, cell-based; settings: Homo sapiens
Protein RecA = molecular target: T2, Protein RecA (Mycobacterium tuberculosis, UniProt P9WHJ3); test: Fluorescence Cell-Free Homogeneous Dose Retest to Identify Inhibitors of RecA-Intein Splicing Activity. [Related pubchem assays (depositor defined):AID2097, AID2223, AID489010, AID492950]; format: functional
T2 sequence (P9WHJ3 whole entry): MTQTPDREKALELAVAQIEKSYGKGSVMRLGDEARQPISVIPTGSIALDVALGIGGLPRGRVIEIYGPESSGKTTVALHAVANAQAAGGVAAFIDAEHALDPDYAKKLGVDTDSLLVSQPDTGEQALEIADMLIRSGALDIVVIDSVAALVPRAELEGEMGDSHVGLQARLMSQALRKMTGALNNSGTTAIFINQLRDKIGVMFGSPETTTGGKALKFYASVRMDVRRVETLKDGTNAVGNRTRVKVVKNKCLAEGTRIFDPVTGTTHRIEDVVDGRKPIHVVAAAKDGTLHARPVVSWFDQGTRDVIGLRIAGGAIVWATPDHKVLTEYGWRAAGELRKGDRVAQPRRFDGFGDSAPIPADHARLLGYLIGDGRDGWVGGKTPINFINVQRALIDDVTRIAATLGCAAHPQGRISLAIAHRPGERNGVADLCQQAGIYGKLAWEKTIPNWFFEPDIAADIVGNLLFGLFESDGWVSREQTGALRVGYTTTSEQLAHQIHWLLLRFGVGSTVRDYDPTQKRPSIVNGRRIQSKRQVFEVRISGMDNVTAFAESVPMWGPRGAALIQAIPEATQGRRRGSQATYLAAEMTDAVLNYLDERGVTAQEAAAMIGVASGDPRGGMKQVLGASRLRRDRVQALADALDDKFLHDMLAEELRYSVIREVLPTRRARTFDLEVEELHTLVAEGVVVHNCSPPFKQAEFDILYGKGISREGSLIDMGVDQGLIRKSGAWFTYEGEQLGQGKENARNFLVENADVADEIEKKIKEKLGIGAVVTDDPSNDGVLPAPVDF

BJ [7] = test: BJ-TERT fibroblast viability loss – cell-based, RAS-independent, luminescence, dose response (AID 1933); format: functional; settings: Homo sapiens
BJ [8] = test: BJ-TERT-LT-ST fibroblast viability loss – cell-based, RAS-independent, luminescence, dose response (AID 1935); format: functional; settings: Homo sapiens;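 further: BJ fibroblasts immortalized with TERT plus LT and ST oncogenes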
[9] = alpha-synuclein stem-loop luciferase translation blockers – H4 neuroglioma cells, luminescence, confirmation (AID 1988); format: functional, cell-based
[10] = molecular target: T3, Replicative DNA helicase DnaB (Mycobacterium tuberculosis, UniProt P9WMR3); test: DnaB intein splicing inhibitors, dose response, biochemical, cell-free fluorescence (AID 449749); format: functional
T3 sequence (P9WMR3 whole entry): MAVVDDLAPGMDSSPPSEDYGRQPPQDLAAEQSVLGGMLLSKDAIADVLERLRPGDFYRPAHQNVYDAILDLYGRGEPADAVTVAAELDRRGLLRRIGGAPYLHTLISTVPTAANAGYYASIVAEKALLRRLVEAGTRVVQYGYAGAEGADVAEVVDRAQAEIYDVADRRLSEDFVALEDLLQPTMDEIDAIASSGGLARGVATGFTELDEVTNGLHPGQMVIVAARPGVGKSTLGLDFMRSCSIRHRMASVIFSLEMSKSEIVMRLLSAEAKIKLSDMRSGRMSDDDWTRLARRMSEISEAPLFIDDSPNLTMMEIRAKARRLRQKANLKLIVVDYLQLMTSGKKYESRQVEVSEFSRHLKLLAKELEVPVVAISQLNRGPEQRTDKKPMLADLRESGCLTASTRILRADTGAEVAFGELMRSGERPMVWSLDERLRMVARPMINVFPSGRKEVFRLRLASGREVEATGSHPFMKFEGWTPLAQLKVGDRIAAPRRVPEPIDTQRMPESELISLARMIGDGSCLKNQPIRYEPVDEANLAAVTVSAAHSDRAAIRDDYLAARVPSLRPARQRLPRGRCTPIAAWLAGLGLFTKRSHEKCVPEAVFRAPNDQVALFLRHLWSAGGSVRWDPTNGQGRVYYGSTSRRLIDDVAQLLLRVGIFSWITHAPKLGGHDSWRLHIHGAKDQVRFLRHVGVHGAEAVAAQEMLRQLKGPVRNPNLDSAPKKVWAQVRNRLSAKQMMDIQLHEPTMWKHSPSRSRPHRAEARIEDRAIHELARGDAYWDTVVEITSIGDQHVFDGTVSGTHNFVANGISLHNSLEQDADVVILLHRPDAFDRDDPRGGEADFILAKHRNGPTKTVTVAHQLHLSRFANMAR

J774.A1 = test: Confirmation of image-based Screening Assay for Inhibitors of Phagocytosis. [Related pubchem assays (depositor defined):AID1029, AID1643]; format: functional, cell-based; settings: Mus musculus
[11] = DRD fibroblast viability loss – cell-based, non-viral oncogenic, luminescence, dose response (AID 1934); format: functional; settings: Homo sapiens
BJ [12] = test: growth inhibition of engineered Ras-driven BJ cells – cell-based, alamar blue fluorescence, cherrypicked samples, dose response (AID 2631); format: functional; settings: Homo sapiens;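 further: confirmatory dose-response assay in RAS-dependent BJ fibroblasts engineered with TERT, LT and ST, with cytotoxicity read by fluorescence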
[13] = HEK-293T viability loss after treatment – luminescence, T-cell screen hits, cytotoxicity control for TCR NF-kB inhibitor project, dose response (AID 489026); format: functional, cell-based;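 further: cells exposed to compound about 14 hours before the viability readout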
[14] = molecular target: E3 ubiquitin-protein ligase Mdm2/Protein Mdm4 (Homo sapiens, UniProt O15151+Q00987); test: disruption of Mdm2/MdmX protein binding – luminescence detection, dose response (AID 504593); format: functional
[15] = Luminescence Cell-Based Dose Response HTS to Identify Inhibitors of 5'UTR Stem-Loop Driven Prion Protein mRNA Translation in H4 Neuroglioblastoma Cells. [Related pubchem assays: 1827 (Project Summary), 1813 (Primary HTS)]; format: functional
[16] = luciferase reporter signal suppression in cells – H4 neuroglioma cells, luminescence, dose response (AID 1990); format: functional, cell-based
Coagulation factor XII = molecular target: T4, Coagulation factor XII (Homo sapiens, UniProt P00748); test: Factor XIIa Dose Response Confirmation from Single Well HTS. [Related pubchem assays (depositor defined):AID701]; format: functional
T4 sequence (P00748 whole entry): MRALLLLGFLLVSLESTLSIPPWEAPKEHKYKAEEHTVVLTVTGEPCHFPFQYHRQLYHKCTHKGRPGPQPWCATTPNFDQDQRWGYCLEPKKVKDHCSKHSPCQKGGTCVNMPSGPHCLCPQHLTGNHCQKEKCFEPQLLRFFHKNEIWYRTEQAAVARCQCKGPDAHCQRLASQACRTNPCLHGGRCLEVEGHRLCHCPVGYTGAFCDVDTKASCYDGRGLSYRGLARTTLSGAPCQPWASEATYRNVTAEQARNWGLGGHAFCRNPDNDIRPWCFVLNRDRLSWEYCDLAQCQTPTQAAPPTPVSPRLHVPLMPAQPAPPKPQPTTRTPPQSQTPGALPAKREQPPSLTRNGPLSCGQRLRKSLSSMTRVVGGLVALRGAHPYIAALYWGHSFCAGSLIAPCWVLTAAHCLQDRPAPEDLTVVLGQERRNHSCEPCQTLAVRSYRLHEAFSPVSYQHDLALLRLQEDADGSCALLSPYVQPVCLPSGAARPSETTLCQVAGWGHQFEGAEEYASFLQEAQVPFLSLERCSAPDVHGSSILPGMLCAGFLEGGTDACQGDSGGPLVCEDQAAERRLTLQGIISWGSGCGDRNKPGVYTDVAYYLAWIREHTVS

T1 sequence (P41145 whole entry): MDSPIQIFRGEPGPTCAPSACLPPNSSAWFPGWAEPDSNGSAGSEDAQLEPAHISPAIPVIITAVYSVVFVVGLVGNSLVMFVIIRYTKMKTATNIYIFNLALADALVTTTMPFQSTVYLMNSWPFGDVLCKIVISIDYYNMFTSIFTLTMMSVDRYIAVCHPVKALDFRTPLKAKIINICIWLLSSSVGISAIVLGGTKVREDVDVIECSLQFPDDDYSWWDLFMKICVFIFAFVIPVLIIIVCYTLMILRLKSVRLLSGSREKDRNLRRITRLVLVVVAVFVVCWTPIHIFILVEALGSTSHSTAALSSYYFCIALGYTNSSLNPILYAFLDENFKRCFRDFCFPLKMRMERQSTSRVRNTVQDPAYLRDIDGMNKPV
Sequence of Mu-type opioid receptor (P35372 whole entry): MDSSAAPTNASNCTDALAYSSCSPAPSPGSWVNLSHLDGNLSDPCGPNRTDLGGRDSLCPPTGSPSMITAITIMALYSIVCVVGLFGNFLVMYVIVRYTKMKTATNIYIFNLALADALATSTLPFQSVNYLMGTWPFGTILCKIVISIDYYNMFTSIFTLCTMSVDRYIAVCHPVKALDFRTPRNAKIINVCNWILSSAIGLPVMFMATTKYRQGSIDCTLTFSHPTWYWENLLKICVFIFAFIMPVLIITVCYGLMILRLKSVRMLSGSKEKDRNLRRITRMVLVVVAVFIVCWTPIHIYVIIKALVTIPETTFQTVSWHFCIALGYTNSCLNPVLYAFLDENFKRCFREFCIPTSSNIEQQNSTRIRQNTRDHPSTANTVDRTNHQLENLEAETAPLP
Sequence of Delta-type opioid receptor (P41143 whole entry): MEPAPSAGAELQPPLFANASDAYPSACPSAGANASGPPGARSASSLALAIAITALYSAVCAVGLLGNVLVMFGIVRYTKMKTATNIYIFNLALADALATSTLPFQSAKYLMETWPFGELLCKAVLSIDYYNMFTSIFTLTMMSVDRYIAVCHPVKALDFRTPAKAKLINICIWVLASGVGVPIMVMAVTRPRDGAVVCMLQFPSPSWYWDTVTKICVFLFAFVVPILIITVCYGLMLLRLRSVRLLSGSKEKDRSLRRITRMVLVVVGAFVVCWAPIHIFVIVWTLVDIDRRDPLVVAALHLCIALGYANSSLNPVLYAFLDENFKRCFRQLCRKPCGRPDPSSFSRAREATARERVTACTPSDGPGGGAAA
Sequence of G-protein coupled receptor 55 (Q9Y2T6 whole entry): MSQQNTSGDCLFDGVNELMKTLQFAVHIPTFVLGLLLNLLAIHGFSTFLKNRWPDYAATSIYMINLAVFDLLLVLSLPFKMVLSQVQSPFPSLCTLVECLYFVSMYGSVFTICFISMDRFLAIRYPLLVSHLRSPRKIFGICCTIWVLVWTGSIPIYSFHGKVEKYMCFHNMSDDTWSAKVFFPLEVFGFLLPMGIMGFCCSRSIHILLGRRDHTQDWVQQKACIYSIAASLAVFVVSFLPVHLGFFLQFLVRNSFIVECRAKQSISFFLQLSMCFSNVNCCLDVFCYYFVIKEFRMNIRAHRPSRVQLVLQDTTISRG
Sequence of G-protein coupled receptor 35 (Q9HC97 whole entry): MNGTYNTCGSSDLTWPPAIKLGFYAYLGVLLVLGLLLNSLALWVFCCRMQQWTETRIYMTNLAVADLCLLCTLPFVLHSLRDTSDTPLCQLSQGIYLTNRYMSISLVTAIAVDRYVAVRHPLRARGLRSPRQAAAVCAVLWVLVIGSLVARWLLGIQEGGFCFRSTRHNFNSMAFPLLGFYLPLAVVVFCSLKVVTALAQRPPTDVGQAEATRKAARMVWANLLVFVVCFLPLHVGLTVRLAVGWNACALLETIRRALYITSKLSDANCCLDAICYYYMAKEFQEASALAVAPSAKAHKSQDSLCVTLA
Sequence of E3 ubiquitin-protein ligase Mdm2/Protein Mdm4 (Q00987 whole entry): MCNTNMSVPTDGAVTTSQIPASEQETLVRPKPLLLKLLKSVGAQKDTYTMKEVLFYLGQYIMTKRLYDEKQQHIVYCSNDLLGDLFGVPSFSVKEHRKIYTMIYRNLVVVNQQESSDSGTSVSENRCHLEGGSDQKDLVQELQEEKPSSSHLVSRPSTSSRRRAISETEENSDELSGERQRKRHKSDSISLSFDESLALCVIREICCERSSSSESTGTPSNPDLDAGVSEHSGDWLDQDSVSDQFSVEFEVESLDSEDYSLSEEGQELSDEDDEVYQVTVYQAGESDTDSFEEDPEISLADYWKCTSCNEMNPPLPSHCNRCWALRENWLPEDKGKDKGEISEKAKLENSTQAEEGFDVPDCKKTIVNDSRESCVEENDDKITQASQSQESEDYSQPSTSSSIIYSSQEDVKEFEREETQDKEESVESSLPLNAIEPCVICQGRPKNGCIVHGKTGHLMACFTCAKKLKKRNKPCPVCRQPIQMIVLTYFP
Sequence of E3 ubiquitin-protein ligase Mdm2/Protein Mdm4 (O15151 whole entry): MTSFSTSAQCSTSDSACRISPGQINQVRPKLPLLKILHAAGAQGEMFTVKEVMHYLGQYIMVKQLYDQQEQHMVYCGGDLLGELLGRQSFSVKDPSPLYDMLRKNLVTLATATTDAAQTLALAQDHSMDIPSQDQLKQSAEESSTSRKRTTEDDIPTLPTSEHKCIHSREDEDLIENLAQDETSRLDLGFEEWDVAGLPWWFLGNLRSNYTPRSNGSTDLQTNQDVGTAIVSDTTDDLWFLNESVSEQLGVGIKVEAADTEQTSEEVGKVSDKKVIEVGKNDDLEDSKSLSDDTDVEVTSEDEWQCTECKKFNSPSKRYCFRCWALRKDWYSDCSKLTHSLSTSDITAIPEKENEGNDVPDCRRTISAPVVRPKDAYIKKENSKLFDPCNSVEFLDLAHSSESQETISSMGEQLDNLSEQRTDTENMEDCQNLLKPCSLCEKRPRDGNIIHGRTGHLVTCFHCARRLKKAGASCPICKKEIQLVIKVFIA

Question: For `COC(=O)c1cnn(-c2ccccc2)c1/C=N/NC(=S)Nc1ccccc1`, which IC50 [1] is on record?
Answer: 15.1 µM (inactive)

Question: What about the IC50 [2] of the same compound?
Answer: 1.01 µM (active)

Question: Which IC50 [3] does the source give for `COc1ccc(N2CCN(CCCNC(=O)Cn3c(=O)c4cccn4c4cc(Br)cnc43)CC2)c(OC)c1` here?
Answer: 3.02 µM (active)

Question: And the IC50 [4]?
Answer: 2.82 µM (active)

Question: And the IC50 [5]?
Answer: > 32 µM (inactive)

Question: What about the IC50 (Mu-type opioid receptor) of the same compound?
Answer: 10.2 µM (inactive)

Question: For `Cn1nc([N+](=O)[O-])nc1Sc1nnc(-c2ccccc2)o1`, which EC50 (BJ [6]) is on record?
Answer: 2.52 µM (active)

Question: And the EC50 (Protein RecA)?
Answer: 10.9 µM (active)

Question: And the EC50 (BJ [7])?
Answer: 3.15 µM (active)

Question: And the EC50 (BJ [8])?
Answer: 43.9 µM (inconclusive)

Question: And the EC50 [9]?
Answer: 10.2 µM (active)

Question: What about the AC50 [10] of the same compound?
Answer: 40.3 µM (active)

Question: What about the IC50 (J774.A1) of the same compound?
Answer: 0.438 µM (active)

Question: And the EC50 [11]?
Answer: 11.1 µM (active)

Question: What about the EC50 (BJ [12]) of the same compound?
Answer: 0.556 µM (active)

Question: What about the IC50 [13] of the same compound?
Answer: > 80 µM (inactive)

Question: What about the IC50 [14] of the same compound?
Answer: 6.19 µM (active)

Question: What about the EC50 [15] of the same compound?
Answer: > 120 µM (not active)

Question: And the EC50 [16]?
Answer: > 120 µM (not active)

Question: With `Cc1ccc(CNC(=O)C[S+]([O-])CC(=O)O)cc1` (stereo not given) as the compound, how does the IC50 (Coagulation factor XII) read?
Answer: > 50 µM (inactive)
